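How tested: cells in 96-well plates exposed to compound for 48 hours at five concentrations. GI50 marks 50% less growth. TGI denotes the concentration required for complete inhibition of growth.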 Where a SMILES comes first, the peptide text is derived from it. [ ]: non-standard residue; d: D form. The star is where a group is joined. Octanoyl = CCCCCCCC(=O)*; Aib = CC(C)(N)C(=O)O; tBu = CC(C)(C)*
Assays:
Test in all cases: DTP human tumour cell line panel, 48 h
[1] = tested on: U251 CNS
[2] = tested on: HCT-116 colon
[3] = tested on: SR leukemia
[4] = tested on: ACHN renal
[5] = tested on: HS 578T breast
[6] = tested on: T-47D breast
[7] = tested on: HCC-2998 colon
[8] = tested on: LOX IMVI melanoma
[9] = tested on: DLD-1 colon
[10] = tested on: DMS 273 small cell lung
[11] = tested on: SNB-78 CNS
[12] = tested on: KM20L2 colon

| Compound | TGI [1] [µM] | TGI [2] [µM] | TGI [3] [µM] | TGI [4] [µM] | TGI [5] [µM] | TGI [6] [µM] | TGI [7] [µM] | TGI [8] [µM] | TGI [9] [µM] | TGI [10] [µM] | TGI [11] [µM] | TGI [12] [µM] | GI50 [1] [µM] | GI50 [2] [µM] | GI50 [4] [µM] | GI50 [8] [µM] | GI50 [9] [µM] | GI50 [10] [µM] | GI50 [11] [µM] | GI50 [12] [µM] |
| --- | --- | --- | --- | --- | --- | --- | --- | --- | --- | --- | --- | --- | --- | --- | --- | --- | --- | --- | --- | --- |
| COc1ccc(O)c(C=NCCCN=Cc2cc(OC)ccc2O)c1 | 56.9 | > 100 | > 100 | 74.4 | 68 |  |  |  |  |  |  |  |  |  |  |  |  |  |  |  |
| Cc1ccc(S(=O)(=O)OC2C(C3COC(C)(C)O3)OC3OC(C)(C)OC32)cc1 (centres undefined) | > 100 | > 100 | > 100 | > 100 | > 100 | > 100 | > 100 | > 100 |  |  |  |  |  |  |  |  |  |  |  |  |
| CCCCCCCCCCCCCCCCOCC(COP(=O)([O-])OCC[N+](C)(C)C)OCCCCCCCCCCCCCCCC (centres undefined) | > 100 | > 100 |  |  |  |  | > 100 | > 100 | > 100 | > 100 | > 100 | > 100 |  |  |  |  |  |  |  |  |
| COc1cc2c3c(n(CCCNCCCNCCCn4c5c(c6ccccc6c4=O)C(=O)c4ccccc4-5)c(=O)c2cc1OC)-c1cc2c(cc1C3=O)OCO2 | 0.0205 | 0.263 |  | < 0.0219 |  |  |  | < 0.0361 |  |  |  |  | < 0.01 | < 0.015 | < 0.01 | < 0.01 |  |  |  |  |
| Clc1c(Cl)c2c(Cl)c(Cl)c1C[P+](c1ccccc1)(c1ccccc1)CC[P+](c1ccccc1)(c1ccccc1)Cc1c(Cl)c(Cl)c(c(Cl)c1Cl)C[P+](c1ccccc1)(c1ccccc1)CC[P+](c1ccccc1)(c1ccccc1)C2 | 12.4 | 9.71 |  | 17.6 |  |  | 14.5 | 7.89 | 13.2 | 6.59 | 18.9 | 12.9 |  |  |  |  |  |  |  |  |
| c1ccc(/N=N/Nc2ccc(-c3nc4ccccc4[nH]3)cc2)nc1 | 30.1 | 19.7 |  | 34.2 | 43 | 26 |  | 43.7 |  |  |  |  |  |  |  |  |  |  |  |  |
| O=C(c1cccnc1)N1N=C(c2ccc(Cl)cc2)CC1(O)c1cc(F)c(Cl)cc1Cl (centres undefined) | 34.3 | 52.8 | > 100 | 53.8 | > 100 | 20.7 |  | 31.2 |  |  |  |  |  |  |  |  |  |  |  |  |
| COc1cc([N+](=O)[O-])ccc1NC1=CC(=O)CCC1 | > 100 | > 100 | > 100 | > 100 | > 100 | > 100 | > 100 | > 100 |  |  |  |  |  |  |  |  |  |  |  |  |
| O=[n+]1c2ccccc2n([O-])c2cc(Br)ccc21 | 78.8 | > 100 | 5.21 | 17.4 | > 100 | 45.9 | 39.9 | 13.6 |  |  |  |  |  |  |  |  |  |  |  |  |
| Oc1ccc(Cn2c(-c3ccc(O)c(O)c3)nc3ccccc32)cc1O | 47.1 | 16.3 | 18.2 | 60.2 | 35.2 | 45.1 | 27.3 | 26 |  |  |  |  |  |  |  |  |  |  |  |  |
| CC(=O)Oc1ccccc1C(=O)O | > 100 | > 100 | > 100 | > 100 |  | > 100 |  | > 100 |  |  |  |  |  |  |  |  |  |  |  |  |
| CCOC(=O)CCC(NC(=O)Cc1ccc(Oc2nc3ccccc3nc2-c2cccs2)cc1)C(=O)OCC (centres undefined) | 87.1 | > 100 | > 100 | 18.3 | 81.1 |  | > 100 | > 100 |  |  |  |  |  |  |  |  |  |  |  |  |
| CCO[C@]12C[C@H](OC)[C@@]3(O)CC(C1[C@H]3O)C13C4C2[C@H](OC)C1[C@](COC)(CN4CC)[C@H](O)C[C@@H]3OC (some centres undefined) |  | > 100 | > 100 | > 100 |  |  | > 100 | > 100 | > 100 | > 100 | > 100 | > 100 |  |  |  |  |  |  |  |  |
| NS(=O)(=O)c1ccc(CNc2nc(-c3cccs3)nc3ccc(I)cc23)cc1 | 37.7 | 28.1 | 42.8 | 58.3 |  | 1.81 | 27.7 | 29.3 |  |  |  |  |  |  |  |  |  |  |  |  |
| COc1ccc(N2C(=O)C3c4[nH]c5cccc(C)c5c4C4CCC(C(C)(C)C)CC4C3C2=O)cc1 (centres undefined) | > 10 | > 10 | > 10 | > 10 | > 10 | > 10 | > 10 | > 10 |  |  |  |  |  |  |  |  |  |  |  |  |
| CC#C[I+]c1ccccc1 | 29.1 | 35.3 | 36.5 | 32 |  |  | 56.6 | 28.2 | 30.2 | 27.8 | 54.5 | 36.1 |  |  |  |  |  |  |  |  |
| O=[N+]([O-])c1cc(-[n+]2cc([O-])on2)ccc1F | 32.4 | 28.6 | > 100 | 30.7 | 61.5 | 15.5 | 28.6 | 31.1 |  |  |  |  |  |  |  |  |  |  |  |  |
| O=[N+]([O-])O.[Ga] | 4930 | > 10000 | > 10000 | > 10000 | > 10000 | > 9010 | > 5620 | > 8240 | > 10000 | 6900 | > 4980 | > 10000 |  |  |  |  | 3500 | 470 | > 4220 | 1270 |
| CCCCCCCC(=O)NC(C)(C)C(=O)NC(COC(C)(C)C)C(=O)NC(CC(C)C)C(=O)NC(C)(C)C(=O)NC(COC(C)(C)C)C(=O)NC(COC(C)(C)C)C(=O)NC(CC(C)C)C(=O)NC(C)(C)C(=O)NC(COC(C)(C)C)C(=O)NC(C(=O)NC(CC(C)C)C(=O)OC)C(C)CC (centres undefined) (Octanoyl-[Aib]S(tBu)L[Aib]S(tBu)S(tBu)L[Aib]S(tBu)IL-OMe; configuration not given here) | 12.8 | > 25 | 17.9 | 20.8 | > 25 | 23.5 |  | 10.6 |  |  |  |  |  |  |  |  |  |  |  |  |
| CCCCN1C(=O)NC(Cc2ccccc2)C1=O (centres undefined) | > 100 |  | > 100 | > 100 |  |  | > 100 | > 100 | > 100 | > 100 | > 100 | > 100 |  |  |  |  |  |  |  |  |
| Cn1c(-c2ccc(/C=N\N3CCN(/N=C/c4ccc(-c5c[n+]6ccsc6n5C)cc4)CC3)cc2)c[n+]2ccsc12 | > 100 | > 100 | > 100 | > 100 | 80.8 | 53.8 |  | > 100 |  |  |  |  |  |  |  |  |  |  |  |  |

Source: PubChem BioAssay (NCI)
